Data set [1] in a line: Steady-state NDP kinase activity, coupled enzymes (pyruvate kinase, lactate dehydrogenase). The data set is classed as biochemical. As to conditions: for specific activity: standard conditions: [ATP]=1 mM, [dTDP]=0.2 mM, 20° C. The procedure:
The activity of NDP kinase was measured at 20° C. with ATP and dTDP as substrates using coupled enzymes (pyruvate kinase and lactate dehydrogenase) (Lascu 1993). One unit is the amount of enzyme that catalyzes the phosphotransfer of 1 μmol/min under standard conditions: [ATP]=1 mM, [dTDP]=0.2 mM. Rate constants (kcat) and Michaelis constants (Km) were determined from initial velocities for two different constant ratios of nucleotide [dTDP]/[ATP]=0.05 0.1 with [ATP] varying from 0.2 to 2 mM. kcat is expressed by enzyme subunit. The ratio of the ^apparentkcat/^apparentKM at a given concentration of the other substrate is equal to the true value of kcat/KM for a ping-pong enzyme.

Data set [2] has as its target T1, human NDP kinase A (NDPK-A, nm23-H1), wild type (Homo sapiens, UniProt P15531).
T1 construct: made in house
The data set can be described thus: Pre-steady-state phosphotransfer, fluorescence stopped-flow. The data set is classed as biochemical. As to conditions: for k2/Ks: catalytic efficiency of phosphotransfer, NDPK-A, pre-steady state. Here is the method: (§1) FIG. 3 depicts the catalytic efficiency of NDPK-A and mutants for nucleoside analogs. The rates of phosphorylation of pure recombinant NDP kinases (1 μM) were measured at the pre-steady state in a fluorescence stopped-flow with d4T-TP (10 to 80 μM). The catalytic efficiency (expressed in M^−1s^−1) was determined from the variation of the rate as a function of analog as shown in FIG. 2 (▾, NDPK-A, ♦ L55H, ● N115S, ▪ L55H-N115S).
(§2) The activity assays were performed at the pre-steady state level.
(§3) Wild type human NDPK-A and the mutants were expressed and purified according to Schneider et al., 2000, Mol Pharm. Recombinant wild type and mutant Dd-NDPK were obtained as described (Schneid, 1998a), except for N119Y NDP kinase which was partially purified by Q sepharose FF chromatography. Each protein was characterized by […] electrophoresis. The concentration of 17 kDa subunits of the enzyme was either determined by Bradford assay ([…]) or using an absorbance coefficient of ΔA^280=1.249 for a 1 mg/mL solution of human wild type and N115S NDPK-A, and =0.55 for wild type and mutant N119S, N119T Dd-NDP kinases, respectively.
(§4) As the diphosphate form of analogs were not always available, the triphosphate analogs were used to study phosphate transfer in reaction as in Scheme I. Experiments were performed with an Hi-Tech DX2 microvolume stopped-flow reaction (Schneider, 1998) at Aexc=296 nm (for Ado derivatives) or […] (for other nucleotides), 2 mm excitation slit and a 320 nm cutoff filter at the emission. After mixing NDPK (1 μM) and NTP or an analogTP (10-500 μM), the intrinsic protein fluorescence was recorded for 10-200 sec. In each experiment, 400 pairs of data were recorded, and the data from 3-4 identical experiments were averaged and fitted to a number of non-linear analytical equations using the software provided by Hi-Tech.
(§5) The data were analyzed using the reaction scheme: [drawing 1]
(§6) In both the forward and the reverse reactions, the product concentration remains very low, thus the product binding can be neglected, and the observed single step could be attributed to the phosphotransfer (Schneider, 1998). The rate of this observed single step is: [formula]
(§7) and reaches a limiting value (k+2) at NTP saturation. […] Therefore, catalytic efficiencies of phosphorylation (CEphos=k+2/(k−1/k+1)=k+2/KS) were measured, which are equivalent to second order constants and allow a reliable comparison of a variety of NDP kinase substrates.

The target in data set [3] is T2, human NDP kinase A (NDPK-A) variant L55H (Homo sapiens, UniProt P15531, L55H).
T2 construct: made in house; host or cells: E. coli
T2 sequence (P15531 whole entry L55H): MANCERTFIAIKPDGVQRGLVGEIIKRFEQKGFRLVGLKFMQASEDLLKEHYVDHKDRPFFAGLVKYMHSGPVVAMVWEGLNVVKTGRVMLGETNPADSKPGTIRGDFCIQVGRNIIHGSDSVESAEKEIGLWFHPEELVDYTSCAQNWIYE
The data set is described as above. The data set is classed as biochemical. As to conditions: for k2/Ks: catalytic efficiency of phosphotransfer; for Specificity change (R): ratio of catalytic efficiencies analog vs natural nucleotide, mutant vs wild type. Here is the method:
as §1, §2
(§8) R, the specificity change, is the ratio of the catalytic efficiencies (for analog versus natural nucleotide) of the mutant compared to the wild type enzyme.
as §3, §4, §5, §6, §7

The target in data set [4] is T3, human NDP kinase A (NDPK-A) variant L55H-N115S, SEQ ID NO: 3 (Homo sapiens, UniProt P15531, L55H/N115S).
T3 construct: made in house; host or cells: E. coli
T3 sequence (P15531 whole entry L55H/N115S): as the sequence (P15531 whole entry L55H) above, with N115S counted along it
The description is as above. It is filed as biochemical. As to conditions: for k2/Ks: catalytic efficiency of phosphotransfer; for Specificity change (R): ratio of catalytic efficiencies analog vs natural nucleotide, mutant vs wild type; for enhancement of ability to phosphorylate: substitution of Asn 115 for Ser and Leu 55 for His. The procedure: as §1, §2, §8, §3, §4, §5, §6, §7

For data set [5], the target named is T4, human NDP kinase A (NDPK-A) variant N115S, SEQ ID NO: 2 (Homo sapiens, UniProt P15531, N115S).
T4 construct: made in house; host or cells: E. coli
T4 sequence (P15531 whole entry N115S): as the sequence (P15531 whole entry L55H) above, with H55L, N115S counted along it
The description is as above. As to conditions: for k2/Ks: catalytic efficiency of phosphotransfer; for Specificity change (R): ratio of catalytic efficiencies analog vs natural nucleotide, mutant vs wild type. It is filed as biochemical. The procedure:
as §1, §2, §8, §3, §4, §5, §6, §7

In data set [6] the target is T5, Dictyostelium discoideum NDP kinase (Dd-NDPK) variant N119S, SEQ ID NO: 1 (Dictyostelium discoideum, UniProt P22887, N119S).
T5 construct: made in house
T5 sequence (P22887 whole entry N119S): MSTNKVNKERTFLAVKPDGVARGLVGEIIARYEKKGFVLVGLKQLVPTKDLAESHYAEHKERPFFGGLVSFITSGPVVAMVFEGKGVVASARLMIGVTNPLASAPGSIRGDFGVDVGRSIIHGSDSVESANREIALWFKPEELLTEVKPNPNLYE
The description is as above. It is filed as biochemical. As to conditions: for k2/Ks: catalytic efficiency of phosphotransfer, N119S, pre-steady state. The procedure:
(§9) (A) Kinetics of reaction of phosphorylated Dictyostelium wild type and N119S NDP kinases by 100 μM Acyclovir diphosphate (Acy-DP). The phosphorylated enzyme was prepared with a stoichiometry #1 as described (Deville-Bonne 1996). The kinases were preincubated with ATP in excess in buffer T (50 mM Tris-HCl, pH 7.5, 5 mM MgCl2 and 75 mM KCl). The increase in fluorescence upon mixing the phospho-enzyme (1 μM, final concentration) with Acy-DP in buffer T at 20° C. was monitored with a stopped-flow. The solid lines represent the best fit of each curve to a monoexponential.
(§10) (B) Concentration dependence of the rate constant on Acy-DP concentation. The pseudo-first order rate constant for the reaction (kobs) was plotted against Acy-DP.
(§11) All numbers in italics have already been published (Schneider, 1998, 2000) The kinetic constants were measured at the pre-steady-state level using a fluorescence stopped-flow device. The binding constants were determined at equilibrium by recording the increase in fluorescence (Schneider, 2000). Values are the average of three independent determinations.
as §3
as §4, with “Hi-Tech. All curves fitted to single exponentials.” for “Hi-Tech.”
as §5, §6
(§12) and reaches a limiting value (k+2) at NTP saturation. Saturation could not be obtained with the concentrations of any NTP used here. Therefore, catalytic efficiencies of phosphorylation (CEphos=k+2/(k−1/k+1)=k+2/KS) were measured, which are equivalent to second order constants and allow a reliable comparison of a variety of NDP kinase substrates.

Data set [7] has as its target T6, Dictyostelium discoideum NDP kinase (Dd-NDPK), wild type (Dictyostelium discoideum, UniProt P22887).
T6 construct: made in house
Described as above. The data set is classed as biochemical. As to conditions: catalytic efficiency of phosphotransfer, wt. The procedure:
as §9, §10, §11, §3
as §4, with “Hi-Tech. All curves fitted to single exponentials.” for “Hi-Tech.”
as §5, §6, §12

For data set [8], the target named is T7, Dictyostelium discoideum NDP kinase inactive variant EI (H122G-F64W) (Dictyostelium discoideum, UniProt P22887, F64W/H122G).
T7 construct: made in house
T7 sequence (P22887 whole entry F64W/H122G): as the sequence (P22887 whole entry N119S) above, with F64W, S119N, H122G counted along it
The data set can be described thus: biochemical. The data set is classed as binding. Here is the method: (§13) The binding constants were determined at equilibrium by recording the increase in fluorescence (Schneider, 2000).
(§14) Analog binding affinity was measured using a variant of Dd-NDPK (EI) as described (Schneider, 2000). […] The mutation N119S was inserted in EI in order to measure the nucleotide affinity by fluorescence titration.
(§15) Altered bases as compared to the wild type sequence are underlined in bold. Sequences were checked by automatic sequencing. The mutant EI-N119S was obtained by mutation of the previously described F64W-H122G mutated NDP kinase (here called EI) (Schneider 2000).

In data set [9] the target is T8, Dictyostelium discoideum NDP kinase inactive variant EI-N119S (H122G-F64W-N119S) (Dictyostelium discoideum, UniProt P22887, F64W/H122G/N119S).
T8 construct: made in house
T8 sequence (P22887 whole entry F64W/N119S/H122G): as the sequence (P22887 whole entry N119S) above, with F64W, H122G counted along it
The data set can be described thus: biochemical. The data set is classed as binding. Here is the method: as §13, §14, §15

The target in data set [10] is T9, Dictyostelium NDP Kinase N119S (Dictyostelium discoideum, UniProt P22887, N119S).
T9 construct: made in house
T9 sequence (P22887 whole entry N119S): as the sequence (P22887 whole entry N119S) above
In words: Pre-steady-state fluorescence stopped-flow phosphotransfer from nucleoside triphosphates, N119S Dd-NDPK. The data set is classed as biochemical. As to conditions: pre-steady state, stopped-flow; average of three determinations. Here is the method: as §11
as §4, with “Hi-Tech. All curves fitted to single exponentials.” for “Hi-Tech.”
as §5, §6, §12

T1 sequence (P15531 whole entry): as the sequence (P15531 whole entry L55H) above, with H55L counted along it

As to “L55H: human NDPK-A with Leu 55 replaced by His”, the “steady-state activity relative to NDPK-A” value in data set [1] (ATP and dTDP) worked out at 1.6 fold. The specific activity in data set [1] was 1900 U/mg.
For the molecule `Cc1cn([C@H]2CC[C@@H](COP(=O)(O)OP(=O)(O)OP(=O)(O)O)O2)c(=O)[nH]c1=O` [dideoxy-TTP], the k2/Ks in data set [2] is 20 M⁻¹ s⁻¹; in data set [3] (L55H, pre-steady state) it was 200 M⁻¹ s⁻¹; in data set [4] (L55H-N115S, pre-steady state), 2800 M⁻¹ s⁻¹; in [5] (N115S, pre-steady state), 170 M⁻¹ s⁻¹. The “Specificity change (R)” value is reported as “(6)” in data set [3], “(370)” in data set [4] and “(100)” in [5].
Regarding `Cc1cn([C@H]2C=C[C@@H](COP(=O)(O)OP(=O)(O)OP(=O)(O)O)O2)c(=O)[nH]c1=O` [d4T-TP, dideoxy, didehydro-TTP], the “times more slowly than with dTTP” value in data set [2] (NDPK-A wild type) is 1700 times. Also, the k2/Ks stood at 700 M⁻¹ s⁻¹ in data set [2]; 1280 M⁻¹ s⁻¹ in data set [3] (L55H, pre-steady state); 6250 M⁻¹ s⁻¹ in data set [5] (N115S, pre-steady state). Further, the “reaction rate compared with Dd-NDPK” value in data set [3] (L55H mutant) is reported as “at the same rate as Dd-NDPK”. Moreover, the “factor of rate versus wild type NDPK-A” value is on record as 9 in data set [3] (L55H, pre-steady state); 80 in data set [4] (L55H-N115S, pre-steady state); 1.8 in [5] (N115S, pre-steady state). Moreover, the “Specificity change (R)” value in [3] is recorded as “(10)”; in [4] it was “(210)”; in data set [5], “(120)”. For the same molecule, the “reactivity compared with dTTP” value in data set [4] (double mutant, catalytic efficiency) was “eight fold less”.
In the case of `Nc1nc2c(ncn2COCCOP(=O)(O)OP(=O)(O)OP(=O)(O)O)c(=O)[nH]1` [acyclovirTP], the k2/Ks is 25 M⁻¹ s⁻¹ in data set [2]; 1650 M⁻¹ s⁻¹ in [6]; 350 M⁻¹ s⁻¹ in data set [7]; 160 M⁻¹ s⁻¹ in data set [3] (L55H, pre-steady state); 2600 M⁻¹ s⁻¹ in [4] (L55H-N115S, pre-steady state); 250 M⁻¹ s⁻¹ in data set [5] (N115S, pre-steady state). Besides, the “ranking as analog substrate” value in [6] (N119S NDP kinase) is “best analog substrate”. Further, the “Specificity change (R)” value is “(3.4)” in data set [3], “(460)” in [4] and “(150)” in [5]. Also, the Kd was found to be 190 µM in data set [8] and 20 µM in data set [9]. Moreover, in data set [9] (relative KD, EI versus EI-N119S), the “increase of affinity by Ser (N119S)” value was 10 fold.
Regarding `Nc1nc2c(ncn2[C@H]2C[C@H](O)[C@@H](COP(=O)(O)OP(=O)(O)OP(=O)(O)O)O2)c(=O)[nH]1` [dGTP], the k2/Ks came to 3.6e+06 M⁻¹ s⁻¹ in data set [2]; 6.8e+06 M⁻¹ s⁻¹ in data set [3] (L55H, pre-steady state); 500000 M⁻¹ s⁻¹ in data set [4] (L55H-N115S, pre-steady state); 240000 M⁻¹ s⁻¹ in [5] (N115S, pre-steady state).
As for `Nc1ncnc2c1ncn2[C@H]1CC[C@@H](COP(=O)(O)OP(=O)(O)OP(=O)(O)O)O1` [ddATP], in [10], the “k2/Ks N119S (catalytic efficiency of phosphotransfer)” value was determined as 2700 M⁻¹ s⁻¹. Further, the k2/Ks is 2700 M⁻¹ s⁻¹ in [6] and 1300 M⁻¹ s⁻¹ in data set [7]. For the same molecule, the values for the equilibrium dissociation constant (Kd) in data set [8] and in data set [9] were 4.6 µM and 2.6 µM, respectively.
For the molecule `Nc1nc2c(ncn2COCCO)c(=O)[nH]1` [acyclovir], in data set [4], the “enhancement of ability to phosphorylate” value is on record as 200-300 times.
Turning to `Cc1cn([C@H]2C=C[C@@H](CO)O2)c(=O)[nH]c1=O` [d4T], the “enhancement of ability to phosphorylate” value in [4] was 200-300 times.

B1: N119Y: Dd-NDPK with Tyr at the position of Asn 119, unstable and poorly active (protein, UniProt P22887 1-155, looked up, variant N119Y)
Nucleoside diphosphate …: MSTNKVNKERTFLAVKPDGVARGLVGEIIARYEKKGFVLVGLKQLVPTKDLAESHYAEHKERPFFGGLVSFITSGPVVAMVFEGKGVVASARLMIGVTNPLASAPGSIRGDFGVDVGRYIIHGSDSVESANREIALWFKPEELLTEVKPNPNLYE
In the case of B1, the “activity relative to wild type” value in data set [1] (Dd-NDPK mutant, partially purified) is recorded as 0.05 % of wild type activity.

B2: Dd-NDPK: wild type NDP kinase from Dictyostelium discoideum (protein, UniProt P22887 1-155, looked up)
Nucleoside diphosphate …: MSTNKVNKERTFLAVKPDGVARGLVGEIIARYEKKGFVLVGLKQLVPTKDLAESHYAEHKERPFFGGLVSFITSGPVVAMVFEGKGVVASARLMIGVTNPLASAPGSIRGDFGVDVGRNIIHGSDSVESANREIALWFKPEELLTEVKPNPNLYE
Take B2: the specific activity in [1] is recorded as 2000 U/mg.

By Kd is commonly meant the constant that tells how readily two partners part at equilibrium. Read a high Kd as weaker binding.
